Assay results: patent US20240083845A1 (priority 2020, published 2024)

molecular target: SARS-CoV-2 Mpro (Severe acute respiratory syndrome coronavirus 2, UniProt P0DTD1); test: SARS-CoV-2 Mpro enzyme assay (FRET); format: biochemical; conditions: FRET substrate Dabcyl-KTSAVLQSGFRKM-E(Edans)-Amide, 20 nM enzyme, 30 min preincubation at 30° C., mean n=2; read-out: SARS-CoV-2 Mpro enzyme assay pKi (converted)

Structure (SMILES)	Ki
NC(=O)C(=O)C(C[C@@H]1CCNC1=O)NC(=O)[C@H](CC1CC1)NC(=O)OCc1ccccc1 (stereo partly drawn) [Example 3, benzyl ((2S)-1-((4-amino-3,4-dioxo-1-((S)-2-oxopyrrolidin-3-yl)butan-2-yl)amino)-3-cyclopropyl-1-oxopropan-2-yl)carbamate]	25.1 nM
CC(C)(C)C[C@H](NC(=O)/C=C/c1ccc(Cl)cc1Cl)C(=O)NC(C[C@@H]1CCNC1=O)C(=O)C(N)=O (stereo partly drawn) [Example 27, (2S)-N-(4-amino-3,4-dioxo-1-((S)-2-oxopyrrolidin-3-yl)butan-2-yl)-2-((E)-3-(2,4-dichlorophenyl)acrylamido)-4,4-dimethylpentanamide]	7.94 nM
O=C(/C=C/c1ccc(Cl)cc1F)N[C@@H](CC1CC1)C(=O)NC(C[C@@H]1CCNC1=O)C(=O)C(=O)NC1CC1 (stereo partly drawn) [Example 28, 3-((S)-2-((E)-3-(4-chloro-2-fluorophenyl)acrylamido)-3-cyclopropylpropanamido)-N-cyclopropyl-2-oxo-4-((S)-2-oxopyrrolidin-3-yl)butanamide]	15.8 nM
